Tests used:
[1] = test system: Cyperus serotinus, Rottb.; test: Postemergence weed control under flooded paddy conditions, CYPSE (Flatsedge); type: in vivo; conditions: rated three to four weeks after treatment
[2] = test system: Cyperus iria; test: Preemergence weed control under flooded paddy conditions, CYPIR (Rice Flatsedge); type: in vivo; conditions: flooded paddy; for herbicidal effect rating, CYPIR: preemergence, rated 3-4 weeks after treatment; for CYPIR: preemergence weeds, herbicidal effect rating 0-9, three to four weeks after treatment
[3] = test system: Echinochloa oryzoides (Ard.) Fritsch.; test: Postemergence weed control under flooded paddy conditions, ECHORC (Watergrass (Calif.)); type: in vivo; conditions: rated three to four weeks after treatment
[4] = test system: Cyperus iria; test: Postemergence weed control under flooded paddy conditions, CYPIR (Rice Flatsedge); type: in vivo; conditions: rated three to four weeks after treatment
[5] = test system: Echinochloa oryzoides (Ard.) Fritsch.; test: Preemergence weed control under flooded paddy conditions, ECHORC (Watergrass (Calif.)); type: in vivo; conditions: flooded paddy; for herbicidal effect rating, ECHORC: preemergence, rated 3-4 weeks after treatment; for ECHORC: preemergence weeds, herbicidal effect rating 0-9, three to four weeks after treatment
[6] = test system: Oryza sativa, (L.) Tebonnet; test: Rice tolerance to post-transplant applications under flooded paddy conditions (Example 188), ORYSAT (Rice, Tebonnet); conditions: rated three to four weeks after treatment
[7] = test system: Monochoria vaginalis, Presl.; test: Postemergence weed control under flooded paddy conditions, MOOVA (Monochoria); type: in vivo; conditions: rated three to four weeks after treatment
[8] = test system: Oryza sativa, (L.) Tebonnet; test: Rice tolerance to post-transplant applications under flooded paddy conditions (Example 187), ORYSAT (Rice, Tebonnet); conditions: for herbicidal effect rating ORYSAT: rated 3-4 weeks after treatment; for ORYSAT: herbicidal effect rating 0-9, three to four weeks after treatment; as to herbicidal effect rating ORYSAT: meaning of each grade not given here
[9] = test system: Sagittaria pygmaea, L.; test: Preemergence weed control under flooded paddy conditions, SAGPY (Arrowhead (Pygmaea)); type: in vivo; conditions: flooded paddy; for herbicidal effect rating, SAGPY: preemergence, rated 3-4 weeks after treatment; for SAGPY: preemergence weeds, herbicidal effect rating 0-9, three to four weeks after treatment
[10] = test system: Monochoria vaginalis, Presl.; test: Preemergence weed control under flooded paddy conditions, MOOVA (Monochoria); type: in vivo; conditions: flooded paddy; for herbicidal effect rating, MOOVA: preemergence, rated 3-4 weeks after treatment; for MOOVA: preemergence weeds, herbicidal effect rating 0-9, three to four weeks after treatment
[11] = test system: Sagittaria pygmaea, L.; test: Postemergence weed control under flooded paddy conditions, SAGPY (Arrowhead (Pygmaea)); type: in vivo; conditions: rated three to four weeks after treatment
[12] = test system: Cyperus serotinus, Rottb.; test: Preemergence weed control under flooded paddy conditions, CYPSE (Flatsedge); type: in vivo; conditions: for herbicidal effect rating, CYPSE: preemergence, rated 3-4 weeks after treatment; for CYPSE: preemergence weeds, herbicidal effect rating 0-9, three to four weeks after treatment

SMILES: Cc1ccc(OCC(=O)OCC2(c3ccccc3)CC2)c(-c2nsc3ccc(-n4c(=O)cc(C(F)(F)F)n(C)c4=O)cc23)c1 [Example 517, Acetic acid, {{2-{5-[3,6-dihydro-3-methyl-2,6-dioxo-4-(trifluoromethyl)-1(2H)-pyrimidinyl]-1,2-benzisothiazol-3-yl}-p-tolyl}oxy}-, (1-phenylcyclopropyl)methyl ester]
- herbicidal effect rating, CYPSE ([1]; Rate 0.0320 kg/ha): 0.0
- herbicidal effect rating, CYPSE ([1]; Rate 0.0620 kg/ha): 0.0
- herbicidal effect rating, CYPSE ([1]; Rate 0.1250 kg/ha): 0.0
- herbicidal effect rating, CYPSE ([1]; Rate 0.2500 kg/ha): 0.0
- herbicidal effect rating, CYPIR ([2]; Rate 0.0320 kg/ha): 5.5
- herbicidal effect rating, CYPIR ([2]; Rate 0.0620 kg/ha): 6.5
- herbicidal effect rating, CYPIR ([2]; Rate 0.1250 kg/ha): 5.5
- herbicidal effect rating, CYPIR ([2]; Rate 0.2500 kg/ha): 7.0
- herbicidal effect rating, ECHORC ([3]; Rate 0.0320 kg/ha): 0.0
- herbicidal effect rating, ECHORC ([3]; Rate 0.0620 kg/ha): 0.0
- herbicidal effect rating, ECHORC ([3]; Rate 0.1250 kg/ha): 0.0
- herbicidal effect rating, ECHORC ([3]; Rate 0.2500 kg/ha): 0.0
- herbicidal effect rating, CYPIR ([4]; Rate 0.0320 kg/ha): 3.0
- herbicidal effect rating, CYPIR ([4]; Rate 0.0620 kg/ha): 5.0
- herbicidal effect rating, CYPIR ([4]; Rate 0.1250 kg/ha): 9.0
- herbicidal effect rating, CYPIR ([4]; Rate 0.2500 kg/ha): 9.0
- herbicidal effect rating, ECHORC ([5]; Rate 0.0320 kg/ha): 9.0
- herbicidal effect rating, ECHORC ([5]; Rate 0.0620 kg/ha): 9.0
- herbicidal effect rating, ECHORC ([5]; Rate 0.1250 kg/ha): 8.0
- herbicidal effect rating, ECHORC ([5]; Rate 0.2500 kg/ha): 9.0
- herbicidal effect rating, ORYSAT (rice tolerance) ([6]; Rate 0.0320 kg/ha): 0.0
- herbicidal effect rating, ORYSAT (rice tolerance) ([6]; Rate 0.0620 kg/ha): 0.0
- herbicidal effect rating, ORYSAT (rice tolerance) ([6]; Rate 0.1250 kg/ha): 0.0
- herbicidal effect rating, ORYSAT (rice tolerance) ([6]; Rate 0.2500 kg/ha): 0.0
- herbicidal effect rating, MOOVA ([7]; Rate 0.0320 kg/ha): 9.0
- herbicidal effect rating, MOOVA ([7]; Rate 0.0620 kg/ha): 9.0
- herbicidal effect rating, MOOVA ([7]; Rate 0.1250 kg/ha): 9.0
- herbicidal effect rating, MOOVA ([7]; Rate 0.2500 kg/ha): 9.0
- herbicidal effect rating ORYSAT ([8]; Rate 0.0320 kg/ha): 0.0
- herbicidal effect rating ORYSAT ([8]; Rate 0.0620 kg/ha): 0.0
- herbicidal effect rating ORYSAT ([8]; Rate 0.1250 kg/ha): 1.5
- herbicidal effect rating ORYSAT ([8]; Rate 0.2500 kg/ha): 3.0
- herbicidal effect rating, SAGPY ([9]; Rate 0.0320 kg/ha): 0.0
- herbicidal effect rating, SAGPY ([9]; Rate 0.0620 kg/ha): 0.0
- herbicidal effect rating, SAGPY ([9]; Rate 0.1250 kg/ha): 0.0
- herbicidal effect rating, SAGPY ([9]; Rate 0.2500 kg/ha): 0.0
- herbicidal effect rating, MOOVA ([10]; Rate 0.0320 kg/ha): 9.0
- herbicidal effect rating, MOOVA ([10]; Rate 0.0620 kg/ha): 9.0
- herbicidal effect rating, MOOVA ([10]; Rate 0.1250 kg/ha): 9.0
- herbicidal effect rating, MOOVA ([10]; Rate 0.2500 kg/ha): 9.0
- herbicidal effect rating, SAGPY ([11]; Rate 0.0320 kg/ha): 0.0
- herbicidal effect rating, SAGPY ([11]; Rate 0.0620 kg/ha): 0.0
- herbicidal effect rating, SAGPY ([11]; Rate 0.1250 kg/ha): 0.0
- herbicidal effect rating, SAGPY ([11]; Rate 0.2500 kg/ha): 0.0
- herbicidal effect rating, CYPSE ([12]; Rate 0.0320 kg/ha): 3.0
- herbicidal effect rating, CYPSE ([12]; Rate 0.0620 kg/ha): 4.5
- herbicidal effect rating, CYPSE ([12]; Rate 0.1250 kg/ha): 4.5
- herbicidal effect rating, CYPSE ([12]; Rate 0.2500 kg/ha): 0.0

SMILES: Cn1c(C(F)(F)F)cc(=O)n(-c2ccc3snc(C(=O)C(C)(C)C)c3c2)c1=O [Example 432, 2,4(1H,3H)-Pyrimidinedione, 1-methyl-3-(3-pivaloyl-1,2-benzisothiazol-5-yl)-6-(trifluoromethyl)-]
- herbicidal effect rating, CYPSE ([1]; Rate 0.0320 kg/ha): 0.0
- herbicidal effect rating, CYPSE ([1]; Rate 0.0620 kg/ha): 4.0
- herbicidal effect rating, CYPSE ([1]; Rate 0.1250 kg/ha): 7.0
- herbicidal effect rating, CYPSE ([1]; Rate 0.2500 kg/ha): 9.0
- CYPIR ([2]; 0.0320 kg/ha): 8.0
- CYPIR ([2]; 0.0620 kg/ha): 9.0
- CYPIR ([2]; 0.1250 kg/ha): 9.0
- CYPIR ([2]; 0.2500 kg/ha): 9.0
- herbicidal effect rating, ECHORC ([3]; Rate 0.0320 kg/ha): 9.0
- herbicidal effect rating, ECHORC ([3]; Rate 0.0620 kg/ha): 9.0
- herbicidal effect rating, ECHORC ([3]; Rate 0.1250 kg/ha): 9.0
- herbicidal effect rating, ECHORC ([3]; Rate 0.2500 kg/ha): 9.0
- herbicidal effect rating, CYPIR ([4]; Rate 0.0320 kg/ha): 8.0
- herbicidal effect rating, CYPIR ([4]; Rate 0.0620 kg/ha): 8.0
- herbicidal effect rating, CYPIR ([4]; Rate 0.1250 kg/ha): 9.0
- herbicidal effect rating, CYPIR ([4]; Rate 0.2500 kg/ha): 9.0
- ECHORC ([5]; 0.0320 kg/ha): 9.0
- ECHORC ([5]; 0.0620 kg/ha): 9.0
- ECHORC ([5]; 0.1250 kg/ha): 9.0
- ECHORC ([5]; 0.2500 kg/ha): 9.0
- herbicidal effect rating, ORYSAT (rice tolerance) ([6]; Rate 0.0320 kg/ha): 4.0
- herbicidal effect rating, ORYSAT (rice tolerance) ([6]; Rate 0.0620 kg/ha): 4.0
- herbicidal effect rating, ORYSAT (rice tolerance) ([6]; Rate 0.1250 kg/ha): 7.0
- herbicidal effect rating, ORYSAT (rice tolerance) ([6]; Rate 0.2500 kg/ha): 7.0
- herbicidal effect rating, MOOVA ([7]; Rate 0.0320 kg/ha): 9.0
- herbicidal effect rating, MOOVA ([7]; Rate 0.0620 kg/ha): 9.0
- herbicidal effect rating, MOOVA ([7]; Rate 0.1250 kg/ha): 9.0
- herbicidal effect rating, MOOVA ([7]; Rate 0.2500 kg/ha): 9.0
- ORYSAT ([8]; 0.0320 kg/ha): 6.0
- ORYSAT ([8]; 0.0620 kg/ha): 6.0
- ORYSAT ([8]; 0.1250 kg/ha): 6.5
- ORYSAT ([8]; 0.2500 kg/ha): 7.5
- SAGPY ([9]; 0.0320 kg/ha): 0.0
- SAGPY ([9]; 0.0620 kg/ha): 3.5
- SAGPY ([9]; 0.1250 kg/ha): 7.5
- SAGPY ([9]; 0.2500 kg/ha): 8.5
- MOOVA ([10]; 0.0320 kg/ha): 9.0
- MOOVA ([10]; 0.0620 kg/ha): 9.0
- MOOVA ([10]; 0.1250 kg/ha): 9.0
- MOOVA ([10]; 0.2500 kg/ha): 9.0
- herbicidal effect rating, SAGPY ([11]; Rate 0.0320 kg/ha): 0.0
- herbicidal effect rating, SAGPY ([11]; Rate 0.0620 kg/ha): 0.0
- herbicidal effect rating, SAGPY ([11]; Rate 0.1250 kg/ha): 2.0
- herbicidal effect rating, SAGPY ([11]; Rate 0.2500 kg/ha): 4.0
- CYPSE ([12]; 0.0320 kg/ha): 0.0
- CYPSE ([12]; 0.0620 kg/ha): 3.5
- CYPSE ([12]; 0.1250 kg/ha): 6.5
- CYPSE ([12]; 0.2500 kg/ha): 9.0

Source: patent EP0908457B1, “3-(1,2-benzisothiazol- and isoxazol-5-Y1)-2,4(1H,3H)-pyrimidinedione or thione and 3-(1,2-benzisothiazol- and isoxazol-5-y1)-4(3H)-pyrimidinone or thione herbicidal agents” (BASF AKTIENGESELLSCHAFT, priority 1997, dated 1999)
